Experimental data reported in PMC6416309, “Crystal structures of thiamine monophosphate kinase from Acinetobacter baumannii in complex with substrates and products” (Scientific Reports, 2019).

How the values were obtained:
[1] = target: T1, AbThiL (ThiL, thiamine monophosphate kinase) (Acinetobacter baumannii, UniProt A0A0D5YC82); experiment: X-ray crystallography (co-crystal), […] A monoclinic and […] A orthorhombic; assay type: binding; conditions: 5 mM ADP/TPP/MgCl2, paper assigns 5CM7, 5D9U and 6MFM to the two crystal forms inconsistently
T1 construct: non-cleavable N-terminal His6-tag (vector pBG1861), expressed in E. coli Rosetta BL21(DE3)R3; modelled Met1/Ala2 to Phe304/C-terminal Ala305; homodimer, active site at dimer interface
T1 sequence (A0A0D5YC82 1-305): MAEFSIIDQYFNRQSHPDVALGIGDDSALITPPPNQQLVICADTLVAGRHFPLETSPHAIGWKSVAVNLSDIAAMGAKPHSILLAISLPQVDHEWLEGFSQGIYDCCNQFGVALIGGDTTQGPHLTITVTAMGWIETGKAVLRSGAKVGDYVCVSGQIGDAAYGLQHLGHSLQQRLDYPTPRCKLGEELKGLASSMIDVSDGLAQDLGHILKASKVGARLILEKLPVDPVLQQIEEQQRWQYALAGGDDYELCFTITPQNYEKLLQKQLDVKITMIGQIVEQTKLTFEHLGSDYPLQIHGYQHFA

[2] = target: T1, AbThiL (ThiL, thiamine monophosphate kinase); experiment: X-ray crystallography (co-crystal), […] A; assay type: binding; conditions: AMPPNP alone, 5 mM AMPPNP/MgCl2, NaBr; ATP site; also with TMP in 5DD7
[3] = target: T1, AbThiL (ThiL, thiamine monophosphate kinase); experiment: X-ray crystallography (overnight soak of AMPPNP co-crystals), […] A; assay type: binding; conditions: ternary complex with AMPPNP; Mg2+; 5 mM AMPPNP/TMP/MgCl2; K/Na-tartrate, HEPES pH 7.5; active site at dimer interface
[4] = target: the molecule itself; experiment: crystal structure; AbThiL co-crystallised or soaked with AMPPNP, AMPPNP/TMP or ADP/TPP and MgCl2; orthorhombic (P21212) and monoclinic (P21) crystal forms; sitting drops at 287 K

Question: For `Nc1ncnc2c1ncn2[C@@H]1O[C@H](COP(=O)(O)OP(=O)(O)O)[C@@H](O)[C@H]1O` [ADP], which “X-ray crystallography (co-crystal), 1.55 A monoclinic and 1.90 A orthorhombic” value ([1]; ternary complex with TPP, ATP/ADP site) is on record?
Answer: Its value is “with the products ADP/TDP (orthorhombic and monoclinic)”.

Question: For `Nc1ncnc2c1ncn2[C@@H]1O[C@H](COP(=O)(O)OP(=O)(O)NP(=O)(O)O)[C@@H](O)[C@H]1O` [AMPPNP], which “X-ray crystallography (co-crystal), 1.75 A” value [2] is on record?
Answer: The value was “AbThiL in complex with AMPPNP alone (orthorhombic)”.

Question: For `Cc1ncc(C[n+]2csc(CCOP(=O)(O)O)c2C)c(N)n1` [TMP], which “X-ray crystallography (overnight soak of AMPPNP co-crystals), 1.70 A” value [3] is on record?
Answer: The value was “AbThiL in complex with AMPPNP alone (orthorhombic), the substrate analogs AMPPNP/TMP (orthorhombic)”.

Question: Which “X-ray crystallography (co-crystal), 1.55 A monoclinic and 1.90 A orthorhombic” value ([1]; ternary complex with ADP, TMP/TPP site) does the source give for `Cc1ncc(C[n+]2csc(CCOP(=O)(O)OP(=O)(O)O)c2C)c(N)n1` [TPP] here?
Answer: The value was “with the products ADP/TDP (orthorhombic and monoclinic)”.

B1: Thiamine monophosphate kinase (ThiL) from Acinetobacter baumannii (enzyme, UniProt A0A0D5YC82 1-305, looked up)
chain: T1 sequence (A0A0D5YC82 1-305)
notes: Thiamine monophosphate kinase (ThiL), Acinetobacter baumannii strain AB5075-UW, gene amplified from genomic DNA; The vector pBG1861 provides a non-cleavable N-terminal His6-tag; also called AbThiL; not shown: His6, N-terminal, kept
Question: Which “stoichiometry N” value [4] does the source give for B1 here?
Answer: Its value is 2.
